Measurements taken from PMC6287599, “2,6-Bis(2-Benzimidazolyl)Pyridine (BBP) Is a Potent and Selective Inhibitor of Small Conductance Calcium-Activated Potassium (SK) Channels” (Frontiers in Pharmacology, 2018).
Entries after “also recorded” stand apart in the source; their conditions may differ.

Target: T1, Kir3.1+Kir3.4 (Homo sapiens, UniProt P48544+P48549)
T1 sequence (P48549 1-501): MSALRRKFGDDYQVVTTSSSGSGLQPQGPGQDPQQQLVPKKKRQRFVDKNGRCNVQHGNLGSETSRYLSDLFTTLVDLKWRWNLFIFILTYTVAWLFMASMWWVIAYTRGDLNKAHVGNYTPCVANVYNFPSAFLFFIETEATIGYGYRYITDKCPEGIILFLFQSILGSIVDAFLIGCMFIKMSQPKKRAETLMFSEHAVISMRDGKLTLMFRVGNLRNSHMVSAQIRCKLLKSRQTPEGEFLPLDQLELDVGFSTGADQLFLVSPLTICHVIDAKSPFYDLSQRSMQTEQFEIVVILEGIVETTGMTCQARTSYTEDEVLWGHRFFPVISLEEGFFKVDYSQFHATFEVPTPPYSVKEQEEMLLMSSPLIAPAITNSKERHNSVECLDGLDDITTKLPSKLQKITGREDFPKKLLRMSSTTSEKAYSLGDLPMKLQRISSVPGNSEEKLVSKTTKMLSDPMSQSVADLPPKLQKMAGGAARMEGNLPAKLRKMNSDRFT
T1 sequence (P48544 1-419): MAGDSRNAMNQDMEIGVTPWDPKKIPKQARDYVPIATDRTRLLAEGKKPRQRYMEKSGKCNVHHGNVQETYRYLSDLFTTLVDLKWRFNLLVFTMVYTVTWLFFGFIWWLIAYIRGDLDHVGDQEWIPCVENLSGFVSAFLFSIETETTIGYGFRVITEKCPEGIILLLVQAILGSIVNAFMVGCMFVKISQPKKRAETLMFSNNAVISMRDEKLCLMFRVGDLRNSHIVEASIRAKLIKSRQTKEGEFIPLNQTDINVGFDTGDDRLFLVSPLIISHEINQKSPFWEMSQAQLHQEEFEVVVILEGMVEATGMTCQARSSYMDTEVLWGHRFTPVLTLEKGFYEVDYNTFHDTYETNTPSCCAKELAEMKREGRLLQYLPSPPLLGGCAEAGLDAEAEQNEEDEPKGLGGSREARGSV
Assay: Two-electrode voltage clamp in Xenopus laevis oocytes, Kir3.1+Kir3.4
Type: cell-based
Conditions: BBP 10 μM, TEVC, n = 5
Experimental: cRNA was prepared from linearized plasmids using the mMESSAGE mMACHINE T7 kit (Ambion, USA) and quantified by UV spectroscopy (NanoDrop, Thermo Scientific, Wilmington, USA). Xenopus laevis oocytes were acquired from EcoCyte Bioscience (Castrop-Rauxel, Germany). Oocytes were injected with 50 nL cRNA and currents were recorded after 2 days of incubation at 19°C. Currents were recorded at a sampling rate of 10 kHz using a TEVC amplifier (Dagan CA-1B; IL, USA), and borosilicate glass recording electrodes (Module Ohm, Herlev, Denmark), made with a DMZ Universal Puller (Zeitz Instruments, Martinsried, Germany) with a resistance of 0.5–1 MΩ when filled with 2 M KCl. Oocytes were superfused with Kulori (pH 7.4) solution containing NaCl 90 mM, KCl 4 mM, MgCl2 1 mM, CaCl2 1 mM, 4-(2-hydroxyethyl)-1-piperazineethanesulfonic acid 5 mM, and currents were elicited with the voltage protocols previously indicated (Skarsfeldt et al., [2016]), from a holding potential of −80 mV. […]
To assess the effect of BBP on other calcium-activated potassium channels (hBK, hSK3 WT, rSK3 H491N, and hIK), each individual current was first normalized to its cell size using membrane's capacitance (pA/pF) before statistical analysis. […] Statistical significance between saline and the effect of both BBP and the corresponding reference compound was determined for each channel using one-way ANOVA analysis. […]

SMILES: c1cc(-c2nc3ccccc3[nH]2)nc(-c2nc3ccccc3[nH]2)c1 [BBP, 2,6-Bis(2-benzimidazolyl)pyridine]
- Effect on Kir3.1+Kir3.4 current: did not have any effect; also recorded: did not significantly affect
